Experimental data from ChEMBL document CHEMBL4610027, “Identification of Mycobacterium tuberculosis CtpF as a target for designing new antituberculous compounds” (Bioorg Med Chem, 2020).

Assay: Inhibition of calcium stimulated Mycobacterium tuberculosis H37Ra CtpF mutant ATPase activity using Na2ATP as substrate preincubated for 30 mins followed by substrate addition and measured after 30 mins by colorimetric analysis

Compound | IC50
COCC(=O)Nc1c(C(=O)OC)n(CCC(C)C)c2ncc(N[C@@H](C)C(C)(C)O)cc12 | 38.4 µM
O=C(CCCC[C@@H]1SC[C@@H]2NC(=O)N[C@@H]21)NCc1cn(-c2ccccc2)nc1-c1ccccc1 | 76.1 µM
NS(=O)(=O)[C@H]1CC=C(CNC(=O)CCCc2c[nH]c3ccccc23)S1 | 100 µM
CC(=O)C1=C(O)[C@@H]2[C@H]3c4c[nH]c5cccc(c45)C[C@H]3C(C)(C)N2C1=O [CYCLOPIAZONIC ACID] | 94.5 µM
CCCCC(=O)Nc1cccc(C(=O)NCCCNc2cccnc2)c1 | 96.9 µM
C[C@@H](OC(=O)CCCNC1=NS(=O)(=O)c2ccccc21)C(=O)c1c[nH]c2ccccc12 | 102 µM
CCC[C@H](C)NC(=O)CSc1nc2cc(S(=O)(=O)Nc3ccccc3OC)ccc2o1 | 109 µM
